Here are results for 18 compounds from US10995064B2, “Sulfamoyl-arylamides and the use thereof as medicaments for the treatment of hepatitis B” (priority 2012, dated 2021).

Series [1] relates to HBV. In words: anti HBV activity, HepG2.117 inducible (Tet-off) cell line, intracellular HBV DNA by realtime PCR. In kind it is cell-based. The note with it: HepG2.117 cells, 3 days of treatment.
For series [2], the system named is HBV. Kind of series: anti-HBV activity, HepG2.2.15 stable transfected cell line, HBV DNA from secreted virions by realtime PCR. Format: cell-based. The note with it: HepG2.2.15 cells, 6 days of treatment, secreted virion HBV DNA.
In series [3] the test system is HepG2 cells. Kind of series: Cytotoxicity in HepG2 cells, 4 days, Resazurin assay. The note with it: read-out: HepG2 4 days CC50, 4 days, Resazurin. (In general: The colour change of resazurin is a common sign of viable cells or microbes.)
Series [4] concerns HepG2 cells. Kind of series: Cytotoxicity in HepG2 cells using CellTiter-Blue. In kind it is cell-based. The note with it: 6 days.
Series [5] is described as follows: Cytotoxicity in HepG2 cells, 4 days, Resazurin assay. The note with it: human.

Each structure is given as a SMILES string. A value given as a limit tells only on which side of the number the result lay.

In the case of `COC(=O)N1CCCC(NS(=O)(=O)c2cccc(C(=O)Nc3ccc(F)c(C)c3)c2)C1` (racemic) [Compound 159], the midpoint of the response in the series on HBV [1] (Hepatitis B virus, 72 h), the EC50, lay at 300 nM.

As for `COC(=O)N1CCCC(NS(=O)(=O)c2cccc(C(=O)Nc3ccc(F)c(C)c3)c2)C1` (racemic) [Compound 159a], the EC50 (commonly the concentration at which the effect is half-maximal) is 860 nM with HBV [1] and 170 nM in the series on HBV [2].

Regarding `COC(=O)N1CCCC(NS(=O)(=O)c2cccc(C(=O)Nc3ccc(F)c(C)c3)c2)C1` (racemic) [Compound 159b], the EC50 in the series on HBV [1] was found to be 230 nM; in the series with HBV [2] it was 160 nM.

Take `Cc1cc(NC(=O)c2cccc(S(=O)(=O)NC3CC(=O)N(C)C3)c2)ccc1F` (racemic) [Compound 179]: the EC50 in the series on HBV [1] (Hepatitis B virus, 72 h) came to 440 nM; in the series with HBV [2] (Hepatitis B virus, 144 h) it was 210 nM.

Take `Cc1cc(NC(=O)c2cccc(S(=O)(=O)NC3CC(=O)N(C)C3)c2)ccc1F` (racemic) [Compound 179a]: in the series on HepG2 cells [3], the CC50 (usually the concentration giving 50% cytotoxicity) is over 25000 nM. For the same compound, the EC50 with HBV [1] stood at 250 nM; in the series on HBV [2], 380 nM.

With `Cc1cc(NC(=O)c2cccc(S(=O)(=O)NC3CC(=O)N(C)C3)c2)ccc1F` (racemic) [Compound 179b], the CC50 with HepG2 cells [3] is over 25000 nM. For the same compound, the EC50 in the series on HBV [1] came out at 1840 nM; in the series with HBV [2], 1110 nM.

As to `Cc1cc(NC(=O)c2cccc(S(=O)(=O)N[C@@H]3CCC[C@H](O)C3)c2)ccc1F` (single isomer, unassigned) [Compound 134b, N-(4-fluoro-3-methyl-phenyl)-3-[[(1R,3S)-3-hydroxycyclohexyl]sulfamoyl]benzamide or N-(4-fluoro-3-methyl-phenyl)-3-[[(1S,3R)-3-hydroxycyclohexyl]sulfamoyl]benzamide], the EC50 with HBV [1] turned out to be 200 nM.

With `Cc1cc(NC(=O)c2cccc(S(=O)(=O)N[C@H]3Cc4ccccc4[C@@H]3O)c2)ccc1F` (single isomer, unassigned) [Compound 141a, N-(4-fluoro-3-methyl-phenyl)-3-[[(1S,2S)-1-hydroxyindan-2-yl]-sulfamoyl]benzamide or N-(4-fluoro-3-methyl-phenyl)-3-[[(1R,2R)-1-hydroxyindan-2-yl]sulfamoyl]benzamide], the CC50 in the series on HepG2 cells [3] is over 25000 nM. For the same compound, the EC50 in the series on HBV [2] worked out at 700 nM.

Regarding `Cc1cc(NC(=O)c2cccc(S(=O)(=O)N[C@H]3Cc4ccccc4[C@H]3O)c2)ccc1F` (single isomer, unassigned) [Compound 141b, N-(4-fluoro-3-methyl-phenyl)-3-[[(1R,2S)-1-hydroxyindan-2-yl]sulfamoyl]benzamide or N-(4-fluoro-3-methyl-phenyl)-3-[[(1S,2R)-1-hydroxyindan-2-yl]sulfamoyl]benzamide], the CC50 in the series with HepG2 cells [3] is over 25000 nM.

With `Cc1cc(NC(=O)c2cccc(S(=O)(=O)N[C@@H]3CC[C@H](O)C3)c2)ccc1F` (single isomer, unassigned) [Compound 145a, N-(4-fluoro-3-methyl-phenyl)-3-[[(1R,3S)-3-hydroxycyclopentyl]sulfamoyl]benzamide or N-(4-fluoro-3-methyl-phenyl)-3-[[(1S,3R)-3-hydroxycyclopentyl]sulfamoyl]benzamide], the CC50 in the series on HepG2 cells [3] was over 25000 nM.

For `Cc1cc(NC(=O)c2cccc(S(=O)(=O)N[C@H]3CC[C@H](O)C3)c2)ccc1F` (single isomer, unassigned) [Compound 145c, N-(4-fluoro-3-methyl-phenyl)-3-[[(1S,3S)-3-hydroxycyclopentyl]-sulfamoyl]benzamide or N-(4-fluoro-3-methyl-phenyl)-3-[[(1R,3R)-3-hydroxycyclopentyl]sulfamoyl]benzamide], in the series on HepG2 cells [3], the CC50 is over 25000 nM.

Take `Cc1cc(NC(=O)c2cccc(S(=O)(=O)N[C@H]3CC[C@H](O)C3)c2)ccc1F` (single isomer, unassigned) [Compound 145d, N-(4-fluoro-3-methyl-phenyl)-3-[[(1S,3S)-3-hydroxycyclopentyl]-sulfamoyl]benzamide or N-(4-fluoro-3-methyl-phenyl)-3-[[(1R,3R)-3-hydroxycyclopentyl]sulfamoyl]benzamide]: in the series on HBV [2], the EC50 was found to be 400 nM.

On to `CC1(NS(=O)(=O)c2cccc(C(=O)Nc3ccc(F)cc3)c2)COC1` [Compound 4], for which, in the series with HepG2 cells [3], the CC50 is over 100000 nM. For the same compound, the EC50 was found to be 930 nM in the series on HBV [1] (Hepatitis B virus, 72 h) and 960 nM with HBV [2] (Hepatitis B virus, 144 h).

Turning to `O=C(Nc1ccccc1)c1cc(S(=O)(=O)N2CCCCC2)c(Cl)cc1Cl` [Compound 20], the CC50 with HepG2 cells [3] was 79600 nM.

As for `Cc1ccccc1NC(=O)c1cccc(S(=O)(=O)NC2CCCCC2)c1` [Compound 34], the CC50 with HepG2 cells [4] is over 25000 nM. This compound also displayed an EC50 with HBV [2] (Hepatitis B virus, 144 h) of 4180 nM.

For the compound `O=C(Nc1ccc(F)cc1)c1cc(S(=O)(=O)N2CCCCC2)cs1` [Compound 61], the CC50 with HepG2 cells [3] was found to be 35700 nM.

In turn, `CC1(NS(=O)(=O)c2cccc(C(=O)Nc3ccc(F)cc3)c2)CCOCC1` [Compound 83] had a CC50 at 4 days in series [5] of over 25000 nM.

Regarding `Cc1cc(NC(=O)c2cccc(S(=O)(=O)NC3CCCC(O)C3)c2)ccc1F` (centres unmarked) [Compound 134], a half-maximal response with HBV [2] (Hepatitis B virus, 144 h) (EC50) required 180 nM.
